Experimental data published in EPA's ToxRefDB 2.

Assays:
dog [1] = details: Sub-acute repeat dose toxicity, beagle, Oral, Water, dose end: 28 day, group: systemic
rat [2] = details: Multigenerational reproductive toxicity study, other, Oral, Water, dose end: 2 generation
rabbit [3] = details: Prenatal developmental toxicity study, new zealand white, Oral, Gavage/Intubation, dose end: 19 GD
rat [4] = details: Multigenerational reproductive toxicity study, sprague dawley, Oral, Water, dose end: 2 generation
rabbit [5] = details: Prenatal developmental toxicity study, new zealand white, Oral, Gavage/Intubation, dose end: 27 GD, group: maternal
rat [6] = details: Combined chronic toxicity/carcinogenicity, sprague dawley, Oral, Water, dose end: 104 week, group: systemic
mouse [7] = details: Carcinogenicity, cd1, Oral, Feed, dose end: 18 month, group: systemic
rat [8] = details: Combined chronic toxicity/carcinogenicity, sprague dawley, Oral, Feed, dose end: 24 month, group: systemic
rat [9] = details: Multigenerational reproductive toxicity study, other, Oral, Feed, dose end: 2 generation
mouse [10] = details: Subchronic oral toxicity in rodents, cd1, Feed, dose end: 13 week, group: systemic
rat [11] = details: Subchronic oral toxicity in rodents, other, Feed, dose end: 90 day, group: systemic
dog [12] = details: Chronic toxicity; beagle; Oral; Feed; dose end: 52 week; group: systemic; systemic / pathology microscopic / eye / [other] + systemic / pathology microscopic / eye / cataract + systemic / pathology microscopic / …
dog [13] = details: Subchronic oral toxicity in nonrodent, beagle, Feed, dose end: 91 day, group: systemic
dog [14] = details: Subchronic oral toxicity in nonrodent, beagle, Capsule, dose end: 90 day, group: systemic
rat [15] = details: Prenatal developmental toxicity study, wistar, Oral, Gavage/Intubation, dose end: 19 GD
rat [16] = details: Subchronic oral toxicity in rodents, wistar, Feed, dose end: 90 day, group: systemic
rat [17] = details: Subchronic oral toxicity in rodents, wistar, Feed, dose end: 28 day, group: systemic
rat [18] = details: Multigenerational reproductive toxicity study, Oral, Feed, dose end: 3 generation, group: offspring
[19] = systemic / pathology microscopic / nose / inflammation
[20] = systemic / pathology microscopic / nose / inflammation + systemic / pathology microscopic / stomach / hypertrophy
[21] = group: offspring, systemic / in life observation / body weight / offspring (pup) weight + systemic / organ weight / kidney / absolute + systemic / organ …
[22] = group: parental, systemic / in life observation / water consumption / water consumption
[23] = group: parental, systemic / in life observation / water consumption / water consumption + systemic / in life observation / body weight / body weight + …
[24] = group: reproductive, reproductive / reproductive performance / fertility / fertility
[25] = group: developmental, developmental / developmental malformation / aortic arch / dilated + developmental / developmental malformation / bone / [other] + …
[26] = group: maternal, systemic / in life observation / body weight / body weight gain + systemic / in life observation / clinical signs / defecation + systemic / …
[27] = group: offspring, reproductive / offspring survival early / dead fetuses / dead fetuses + reproductive / offspring survival early / live fetuses / live …
[28] = group: parental, systemic / in life observation / food consumption / food consumption + systemic / in life observation / water consumption / water …
[29] = group: reproductive, reproductive / reproductive performance / dystocia / dystocia
[30] = group: reproductive, reproductive / reproductive performance / dystocia / dystocia + reproductive / reproductive performance / postimplantation loss / …
[31] = systemic / in life observation / body weight / body weight + systemic / in life observation / food consumption / food consumption + systemic…
[32] = systemic / in life observation / water consumption / water consumption
[33] = systemic / pathology microscopic / liver / fatty change + systemic / pathology microscopic / liver / necrosis + systemic / pathology …
[34] = systemic / hematology / anemia / anemia - hemolytic + systemic / in life observation / body weight / body weight gain + systemic / …
[35] = group: offspring, systemic / in life observation / body weight / litter weight + developmental / offspring survival late / viability index / viability index
[36] = group: parental, systemic / clinical chemistry / alanine aminotransferase (alt/sgpt) / alanine aminotransferase (alt/sgpt)
[37] = group: parental, systemic / clinical chemistry / sorbitol dehydrogenase / sorbitol dehydrogenase + systemic / clinical chemistry / alanine aminotransferase (…
[38] = systemic / hematology / platelet / platelet
[39] = systemic / clinical chemistry / globulins / globulins
[40] = systemic / hematology / erythrocyte (rbc) count differential / erythrocyte (rbc) + systemic / hematology / hemoglobin (hgb) / hemoglobin (…
[41] = systemic / hematology / anemia / anemia - nos + systemic / hematology / erythrocyte (rbc) count differential / erythrocyte (rbc) + systemic…
[42] = systemic / clinical chemistry / protein / protein + systemic / in life observation / clinical signs / vomiting + systemic / organ weight / …
[43] = group: developmental, developmental / developmental malformation / bone / full supernumerary
[44] = group: maternal, systemic / organ weight / liver / absolute + systemic / pathology microscopic / kidney / vacuolization + systemic / pathology microscopic / …
[45] = systemic / pathology microscopic / kidney / hyaline droplet
[46] = systemic / pathology microscopic / kidney / hyaline droplet + systemic / clinical chemistry / alanine aminotransferase (alt/sgpt) / alanine …
[47] = systemic / clinical chemistry / calcium / calcium + systemic / clinical chemistry / phosphorus / phosphorus + systemic / pathology …
[48] = systemic / in life observation / body weight / offspring (pup) weight + systemic / in life observation / food consumption / food consumption

SMILES: O=[N+]([O-])C(Br)(CO)CO [Bronopol]
- LEL (dog [1]; [19]): 4.1 mg/kg/day
- NEL (dog [1]; [19]): < 4.1 mg/kg/day
- LOAEL (dog [1]; [20]): > 32.6 mg/kg/day
- NOAEL (dog [1]; [20]): ≥ 32.6 mg/kg/day
- NEL (rat [2]; group: offspring, systemic / in life observation / body weight / offspring (pup) weight): 70 mg/kg/day
- LEL (rat [2]; [21]): 200 mg/kg/day
- LOAEL (rat [2]; [21]): > 200 mg/kg/day
- NOAEL (rat [2]; [21]): ≥ 200 mg/kg/day
- LEL (rat [2]; [22]): 25 mg/kg/day
- NEL (rat [2]; [22]): < 25 mg/kg/day
- LOAEL (rat [2]; [23]): > 200 mg/kg/day
- NOAEL (rat [2]; [23]): ≥ 200 mg/kg/day
- LEL (rat [2]; [24]): 200 mg/kg/day
- LOAEL (rat [2]; [24]): > 200 mg/kg/day
- NEL (rat [2]; [24]): 70 mg/kg/day
- NOAEL (rat [2]; [24]): ≥ 200 mg/kg/day
- LEL (rabbit [3]; [25]): 80 mg/kg/day
- LOAEL (rabbit [3]; [25]): 80 mg/kg/day
- NEL (rabbit [3]; [25]): 40 mg/kg/day
- NOAEL (rabbit [3]; [25]): 40 mg/kg/day
- LEL (rabbit [3]; [26]): 80 mg/kg/day
- LOAEL (rabbit [3]; [26]): 80 mg/kg/day
- NEL (rabbit [3]; [26]): 40 mg/kg/day
- NOAEL (rabbit [3]; [26]): 40 mg/kg/day
- LEL (rat [4]; [27]): 150 mg/kg/day
- LOAEL (rat [4]; [27]): 150 mg/kg/day
- NEL (rat [4]; [27]): 50 mg/kg/day
- NOAEL (rat [4]; [27]): 50 mg/kg/day
- LEL (rat [4]; [28]): 50 mg/kg/day
- LOAEL (rat [4]; [28]): 50 mg/kg/day
- NEL (rat [4]; [28]): 10 mg/kg/day
- NOAEL (rat [4]; [28]): 10 mg/kg/day
- NEL (rat [4]; [29]): 50 mg/kg/day
- NOAEL (rat [4]; [29]): 50 mg/kg/day
- LEL (rat [4]; [30]): 150 mg/kg/day
- LOAEL (rat [4]; [30]): 150 mg/kg/day
- LOAEL (rabbit [5]; systemic / in life observation / body weight / body weight + systemic / in life observation / food consumption / food consumption): 40 mg/kg/day
- LEL (rabbit [5]; [31]): 40 mg/kg/day
- NEL (rabbit [5]; [31]): 10 mg/kg/day
- NOAEL (rabbit [5]; [31]): 10 mg/kg/day
- LEL (rat [6]; [32]): 10 mg/kg/day
- NEL (rat [6]; [32]): < 10 mg/kg/day
- LOAEL (rat [6]; systemic / in life observation / water consumption / water consumption + systemic / in life observation / body weight / body weight gain + …): 40 mg/kg/day
- NOAEL (rat [6]; systemic / in life observation / water consumption / water consumption + systemic / pathology microscopic / stomach / squamous cell …): 10 mg/kg/day

SMILES: CC1(c2ccc(Oc3ccccc3)cc2)OC(=O)N(Nc2ccccc2)C1=O (stereo not given) [Famoxadone]
- LEL (mouse [7]; systemic / organ weight / liver / absolute + systemic / organ weight / liver / relative to body weight): 95.6 mg/kg/day
- LOAEL (mouse [7]; [33]): 274 mg/kg/day
- NEL (mouse [7]; [33]): 6.78 mg/kg/day
- NOAEL (mouse [7]; [33]): 95.6 mg/kg/day
- LOAEL (rat [8]; systemic / hematology / anemia / anemia - hemolytic + systemic / in life observation / body weight / body weight gain): 10.7 mg/kg/day
- LEL (rat [8]; [34]): 10.7 mg/kg/day
- NEL (rat [8]; [34]): 2.15 mg/kg/day
- NOAEL (rat [8]; [34]): 2.15 mg/kg/day
- LOAEL (rat [9]; group: offspring, systemic / in life observation / body weight / litter weight): 53.3 mg/kg/day
- LEL (rat [9]; [35]): 53.3 mg/kg/day
- NEL (rat [9]; [35]): 14.2 mg/kg/day
- NOAEL (rat [9]; [35]): 14.2 mg/kg/day
- LEL (rat [9]; [36]): 1.45 mg/kg/day
- NEL (rat [9]; [36]): < 1.45 mg/kg/day
- LOAEL (rat [9]; [37]): 44.7 mg/kg/day
- NOAEL (rat [9]; [37]): 11.3 mg/kg/day
- LEL (mouse [10]; [38]): 5.89 mg/kg/day
- NEL (mouse [10]; [38]): < 5.89 mg/kg/day
- NOAEL (mouse [10]; systemic / organ weight / liver / absolute + systemic / organ weight / liver / relative to body weight + systemic / clinical chemistry / …): 62.4 mg/kg/day
- LOAEL (mouse [10]; systemic / organ weight / liver / absolute + systemic / organ weight / liver / relative to body weight + systemic / hematology / anemia / …): 534 mg/kg/day
- LEL (rat [11]; [39]): 3.34 mg/kg/day
- NEL (rat [11]; [39]): < 3.34 mg/kg/day
- LOAEL (rat [11]; [40]): 13 mg/kg/day
- NOAEL (rat [11]; [40]): 3.34 mg/kg/day
- LEL (dog [12]): 8.8 mg/kg/day
- LOAEL (dog [12]): 8.8 mg/kg/day
- NEL (dog [12]): 1.2 mg/kg/day
- NOAEL (dog [12]): 1.2 mg/kg/day
- LEL (dog [13]; [41]): 1.4 mg/kg/day
- NEL (dog [13]; [41]): < 1.4 mg/kg/day
- LOAEL (dog [13]; systemic / pathology microscopic / eye / cataract + systemic / pathology microscopic / eye / cataract, cortical): 10 mg/kg/day
- NOAEL (dog [13]; systemic / pathology microscopic / eye / cataract + systemic / pathology microscopic / eye / cataract, cortical + systemic / clinical …): 1.3 mg/kg/day

SMILES: N#CCNC(=O)c1cnccc1C(F)(F)F [Flonicamid]
- LEL (dog [14]; [42]): 20 mg/kg/day
- LOAEL (dog [14]; [42]): 20 mg/kg/day
- NOAEL (dog [14]; [42]): 8 mg/kg/day
- NEL (dog [14]; systemic / in life observation / clinical signs / ataxia + systemic / in life observation / clinical signs / defecation (diarrhea) + …): 8 mg/kg/day
- LEL (rat [15]; [43]): 500 mg/kg/day
- LOAEL (rat [15]; [43]): 500 mg/kg/day
- NEL (rat [15]; [43]): 100 mg/kg/day
- NOAEL (rat [15]; [43]): 100 mg/kg/day
- LEL (rat [15]; [44]): 500 mg/kg/day
- LOAEL (rat [15]; [44]): 500 mg/kg/day
- NEL (rat [15]; [44]): 100 mg/kg/day
- NOAEL (rat [15]; [44]): 100 mg/kg/day
- LEL (rat [16]; [45]): 12.1 mg/kg/day
- LOAEL (rat [16]; [45]): 60 mg/kg/day
- NEL (rat [16]; [46]): 3.08 mg/kg/day
- NOAEL (rat [16]; [46]): 12.1 mg/kg/day
- LEL (rat [17]; [47]): 7.47 mg/kg/day
- NEL (rat [17]; [47]): 3.61 mg/kg/day
- NOAEL (rat [17]; [47]): 7.47 mg/kg/day
- LOAEL (rat [17]; [45]): 36.5 mg/kg/day

SMILES: CCCCCCCCCc1ccc(OP(Oc2ccc(CCCCCCCCC)cc2)Oc2ccc(CCCCCCCCC)cc2)cc1 [Phenol, nonyl-, phosphite (3:1)]
- LOAEL (rat [18]; [48]): > 500 mg/kg/day
- NEL (rat [18]; [48]): 50 mg/kg/day
- NOAEL (rat [18]; [48]): ≥ 500 mg/kg/day
- LEL (rat [18]; systemic / in life observation / food consumption / food consumption): 167 mg/kg/day
